The source of these data is patent US10294217B2, “Fluoroindole derivatives as muscarinic M1 receptor positive allosteric modulators” (Suven Life Sciences Limited, priority 2015, dated 2019).

Data set [1] addresses human Muscarinic M1 receptor (Homo sapiens (Human), UniProt P11229). The experiment in a line: Allosteric potency EC50 for muscarinic M1 receptor (CHO cells, pCRE-Luc reporter). It counts as cell-based. To be noted: luciferase activity, 4 hours. As to the method:
Determination of Allosteric Potency EC50 Values for Muscarinic M1 Receptor:
A stable CHO cell line expressing recombinant human Muscarinic M1 receptor and pCRE-Luc reporter system was used for cell-based assay. The assay offers a non-radioactive based approach to determine binding of a compound to GPCRs. In this specific assay, the level of intracellular cyclic AMP which is modulated by activation or inhibition of the receptor is measured. The recombinant cells harbor luciferase reporter gene under the control of cAMP response element.
The above cells were grown in 96 well clear bottom white plates in Hams F12 medium containing 10% fetal bovine serum (FBS). Prior to the addition of compounds or standard agonist, cells were serum starved overnight. Increasing concentrations of test compounds were added along with EC20 of acetylcholine in OptiMEM medium to the cells. The incubation was continued at 37° C. in CO2 incubator for 4 hours. Medium was removed and cells were washed with phosphate buffered saline. The cells were lysed and luciferase activity was measured in a Luminometer. Luminescence units were plotted against the compound concentrations using Graphpad software. EC50 values of the compounds were defined as the concentration required in stimulating the luciferase activity by 50% in presence of EC20 of acetylcholine and the results are provided in table 1.

Data set [2] in a line: Rodent pharmacokinetic study. The data set is classed as in vivo, Male Wistar rats. To be noted: male, Wistar; for AUC(0-t) / half-life / Cmax: rat plasma; for clearance / bioavailability: plasma, rat; for bioavailability: oral 3 mg/kg vs i.v. 1 mg/kg, read-out: % F (Bioavailability). Here is the method: Rodent Pharmacokinetic Study
Male Wistar rats (260±50 grams) were used as experimental animals. Animals were housed individually in polypropylene cage. Two days prior to study, male Wistar rats were anesthetized with isoflurane for surgical placement of jugular vein catheter. Rats were randomly divided for oral (3 mg/kg) and intravenous (i.v.) (1 mg/kg) dosing (n=3/group) and fasted overnight before oral dosing (p.o.). However, rats allocated to intravenous dosing food and water was provided ad libitum.
At pre-determined point, blood was collected through jugular vein and replenished with an equivalent volume of normal saline. Collected blood was transferred into a labeled eppendorf tube containing 10 μL of heparin as an anticoagulant. Typically blood samples were collected at following time points: 0.08, 0.25, 0.5, 1, 2, 4, 6, 8, and 24 hours post dose. Blood was centrifuged at 4000 rpm for 10 minutes. Plasma was separated and stored frozen at −80° C. until analysis. The concentrations of the test compounds were quantified in plasma by qualified LC-MS/MS method using suitable extraction technique. The test compounds were quantified in the calibration range around 1-1000 ng/mL in plasma. Study samples were analyzed using calibration samples in the batch and quality control samples spread across the batch.
Pharmacokinetic parameters Cmax, AUCt, T1/2, Clearance, and Bioavailability (% F) were calculated by non-compartmental model using standard non-compartmental model by using Phoenix WinNonlin 6.0.2 or 6.0.3 version Software package and the results are tabulated in table 3.

For the next data set, the system named is sAPPα. Description: Estimation of cortical sAPPα levels in rat brain (ELISA). Particulars: i.p.; for sAPPα levels: cortex, 60 minutes after treatment, mean ± SEM (n = 5/group); for Inference: cortical sAPPα levels, 1.0-10.0 mg/kg. It counts as in vivo, Male Wistar rats. Here is the method: Estimation of Cortical sAPPα Levels in Rat Brain
Male Wistar rats (250±45 grams) were randomly divided into different treatment groups (n=5 per group). Control group of rats were administered with intraperitoneal (i.p.) injection of vehicle (99.75% of 0.25% hydroxyethylcellulose HHX+0.25% tween 80 for examples 8 and 22; 5% Pharmasolve+45% propylene glycol+50% polyethylene glycol-400 for example 1). Rats in treatment groups were allocated to one dose of test compound and administered with a single intraperitoneal injection of test compound (dose volume of 2 mL/kg). Rats were sacrificed by cervical dislocation at 60 minutes after treatment. Brains were quickly isolated and the cortex was dissected out at −20° C. The cortex was immediately kept on a dry ice and weighed before being stored at −80° C. until quantification of sAPPα using Enzyme-linked immunosorbent assay (ELISA).
• 1. Protease inhibitor cocktail tablets (complete mini, Make-Roche; 1 tablet for 8 mL) were added to the Tris Buffer Saline (TBS) prior to using the buffer for tissue processing. • 2. Cortical tissues were thawed and homogenized in five volumes of TBS and the solution was centrifuged at 15,000 rpm at 4° C. for 90 minutes. • 3. The supernatant was discarded and homogenized in five volumes of TBS. Samples were centrifuged at 15,000 rpm at 4° C. for 30 minutes. • 4. Supernatant was discarded and precipitate was sonicated in ten volumes of 50 mM Tris buffer (pH: 7.6) containing 6 M of Guanidine-HCl. Sonication was repeated four times with duration of five seconds every time. • 5. Resulting mixture was incubated at the room temperature for 30 minutes and centrifuged at 15,000 rpm at 4° C. for 30 minutes. Supernatant was diluted 100 times with EIA buffer prior to addition in the pre-coated ELISA plates. Measurement of sAPPα by ELISA Kit:
To investigate the role of an acute treatment of test compound on sAPPα levels, the expression of this protein was measured in samples obtained from brain homogenates of treated and untreated rats by employing ELISA assay. The entire procedure was followed as described in the ELISA kit manual (Mouse/Rat sAPPα (highly sensitive) assay kit, Catalog Number: JP27419, Immuno-Biological Laboratories Co. Ltd, Hamburg, Germany).
Statistical analyses were performed using the Graph Pad Prism (Version 4). Results are expressed as Mean±SEM levels of sAPPα expressed as percentage of control values obtained from rats treated with vehicle. Statistical significance after treatment was assessed using One-Way ANOVA followed by Dunnett's post test and the significance level was set below p value less than 0.05 and the results are tabulated in table 7.

The mark [3] stands for this setting: in presence of EC20 of acetylcholine, read-out: hM1 PAM EC50.

SMILES strings stand for the structures. Read-outs that look alike come from different tables or passages of the source.

A word on the EC50: it is the concentration giving half of the maximal effect. By AUC(0-t) is commonly meant exposure summed from dosing to a finite time, without extrapolation to infinity. A high value points to more exposure. By half-life is commonly meant how long it takes for the measured level to halve. Read a low half-life as rapid decline. What is called clearance is the rate of elimination divided by the concentration. High values mean a high capacity for elimination, low ones a low capacity for elimination. In general, bioavailability refers to dose-corrected exposure relative to a reference, in per cent. For orientation: Cmax means the highest concentration seen after dosing.

With `Cl.O=C(N[C@H]1CCNC[C@H]1F)c1cn(Cc2ccnc(F)c2)c2c(F)ccc(F)c12` (single isomer, unassigned; isomer-i) [Example 22, Cis-N-(3-Fluoropiperidin-4-yl)-1-(2-fluoropyridin-4-ylmethyl)-4,7-difluoro-1H-indole-3-carboxamide hydrochloride (Isomer-I)], the EC50 in data set [1] (hM1 PAM EC50, in presence of EC20 of acetylcholine) worked out at 1490 nM. In data set [2] (iv, 1 mg/kg), this molecule showed an AUC(0-t) of 908 ± 198 ng·h/mL, a half-life of 7.6 ± 1.7 h and a clearance of 17.1 ± 3.3 mL/min/kg. For the same molecule, the bioavailability in data set [2] turned out to be 60 ± 5%. In addition, in data set [2] (oral, 3 mg/kg), the AUC(0-t) is 1650 ± 147 ng·h/mL, the concentration peaked (Cmax) at 207 ± 76 ng/mL and the half-life is 4.8 ± 2.8 h. For the same molecule, in the data set on sAPPα (1.0 mg/kg), the sAPPα levels was 143 ± 14 % of vehicle. In addition, the sAPPα levels in the data set with sAPPα (3.0 mg/kg) is reported as 164 ± 12 % of vehicle. In addition, the sAPPα levels in the data set on sAPPα (10.0 mg/kg) is reported as 176 ± 10 % of vehicle. The Inference entry in the data set with sAPPα is reported as “Active”.

Take `Cn1cc(Cn2cc(C(=O)N[C@H]3CCCC[C@@H]3O)c3c(F)cccc32)cn1` [Example 1, N-[(1S,2S)-2-Hydroxycyclohexyl]-1-(1-methyl-1H-pyrazol-4-ylmethyl)-4-fluoro-1H-indole-3-carboxamide]: in data set [1] (setting [3]), the EC50 stood at 1260 nM. In data set [2] (iv, 1 mg/kg), this molecule showed an AUC(0-t) of 2250 ± 190 ng·h/mL, a half-life of 3 ± 0.3 h and a clearance of 7.3 ± 0.4 mL/min/kg. Also, in data set [2], the bioavailability came out at 76 ± 7%. For the same molecule, in data set [2] (oral, 3 mg/kg), the AUC(0-t) came out at 5160 ± 464 ng·h/mL, the Cmax was 1190 ± 81 ng/mL and the half-life is 2.9 ± 0.2 h. Moreover, the sAPPα levels in the data set on sAPPα (1.0 mg/kg) was 155 ± 6 % of vehicle. Also, the sAPPα levels in the data set on sAPPα (3.0 mg/kg) is reported as 153 ± 7 % of vehicle. For the same molecule, the sAPPα levels in the data set with sAPPα (10.0 mg/kg) was 142 ± 6 % of vehicle. The Inference result in the data set with sAPPα is listed as “Active”.

With `O=C(N[C@H]1CCCC[C@@H]1O)c1cn(Cc2ccnc(Cl)c2)c2cccc(F)c12` [Example 2, N-[(1S,2S)-2-Hydroxycyclohexyl]-1-(2-chloropyridin-4-ylmethyl)-4-fluoro-1H-indole-3-carboxamide], the EC50 in data set [1] (setting [3]) worked out at 681 nM. In data set [2] (iv, 1 mg/kg), this molecule had an AUC(0-t) of 1150 ± 245 ng·h/mL, a half-life of 1.9 ± 0.4 h and a clearance of 16.1 ± 2.8 mL/min/kg. Further, the bioavailability in data set [2] is 63 ± 17%. In data set [2] (oral, 3 mg/kg), this molecule gave an AUC(0-t) of 2160 ± 599 ng·h/mL, a Cmax of 632 ± 167 ng/mL and a half-life of 1.9 ± 0.2 h.

On to `Cn1cc(Cn2cc(C(=O)N[C@H]3CCCC[C@@H]3O)c3c(F)ccc(F)c32)cn1` [Example 5, N-[(1S,2S)-2-Hydroxycyclohexyl]-1-(1-methyl-1H-pyrazol-4-ylmethyl)-4,7-difluoro-1H-indole-3-carboxamide], for which, in data set [2] (iv, 1 mg/kg), the AUC(0-t) is 2920 ± 1430 ng·h/mL, the half-life was 4 ± 1.7 h and the clearance amounted to 7.1 ± 4.3 mL/min/kg. Moreover, the bioavailability in data set [2] is 90 ± 33%. In data set [2] (oral, 3 mg/kg), this molecule showed an exposure AUC(0-t) of 7870 ± 2860 ng·h/mL, a Cmax of 2680 ± 664 ng/mL and a half-life of 3.3 ± 0.3 h.

Consider `O=C(N[C@H]1CCCC[C@@H]1O)c1cn(Cc2ccnc(F)c2)c2cccc(F)c12` [Example 7, N-[(1S,2S)-2-Hydroxycyclohexyl]-1-(2-fluoropyridin-4-ylmethyl)-4-fluoro-1H-indole-3-carboxamide], for which the EC50 in data set [1] (setting [3]) came out at 1360 nM. In data set [2] (iv, 1 mg/kg), this molecule had an AUC(0-t) of 1120 ± 119 ng·h/mL, a half-life of 2 ± 0.4 h and a clearance of 14.2 ± 2 mL/min/kg. In data set [2], the bioavailability turned out to be 67 ± 14%. Besides, in data set [2] (oral, 3 mg/kg), the AUC(0-t) is 2260 ± 471 ng·h/mL, the Cmax amounted to 783 ± 254 ng/mL and the half-life was 1.4 ± 0.2 h.

Consider `O=C(N[C@H]1CCCC[C@@H]1O)c1cn(Cc2ccnc(F)c2)c2c(F)ccc(F)c12` [Example 8, N-[(1S,2S)-2-Hydroxycyclohexyl]-1-(2-fluoropyridin-4-ylmethyl)-4,7-difluoro-1H-indole-3-carboxamide], for which, in data set [1] (setting [3]), the EC50 is 192 nM. Further, in data set [2] (iv, 1 mg/kg), the AUC(0-t) worked out at 1830 ± 562 ng·h/mL, the half-life was 1.8 ± 0.3 h and the clearance came to 9 ± 3 mL/min/kg. In data set [2], the bioavailability is 45 ± 15%. Further, in data set [2] (oral, 3 mg/kg), the AUC(0-t) was 2500 ± 842 ng·h/mL, the Cmax came out at 578 ± 170 ng/mL and the half-life was 2.3 ± 1.8 h. In the data set on sAPPα (1.0 mg/kg), the sAPPα levels is given as 120 ± 17 % of vehicle. Further, the sAPPα levels in the data set with sAPPα (3.0 mg/kg) is 137 ± 14 % of vehicle. For the same molecule, in the data set with sAPPα (10.0 mg/kg), the sAPPα levels was 173 ± 10 % of vehicle. The Inference result in the data set with sAPPα is “Active”.
